From US5428029A, “Vitamin D3 fluorinated analogs” (Hoffmann-La Roche Inc., priority 1993, dated 1995)
Like-named read-outs stand apart in the source and are kept apart here.

Legend:
HL-60 tumor cell line = assay: HL-60 Differentiation Assay; assay type: cell-based, human; conditions: 4 days; for EC50: Homo sapiens, 96 h, HL-60 differentiation, read-out: Approximate ED50
Procedure: HL-60 Differentiation Assay:
The HL-60 tumor cell line was originally derived from a patient with promyleocytic leukemia and purchased from American Type Culture Collection (ATCC CCL240). […] For experimentation, cells were seeded at 0.9×10^6 cells per 25 cm^2 flask in medium supplemented with 0.25 mM sodium ascorbate. […] All compounds were handled in the following manner. Stock solutions were made of 10^-3 M solutions in ethanol and stored in amber vials overlaid with argon at -20° C. Stock solutions were diluted into medium at concentrations indicated. All flasks were supplemented with vehicle at a concentration of 0.1% ethanol. Control flasks were supplemented with vehicle alone at a concentration of 0.1% ethanol. Flasks were incubated upright for 4 days in 5% CO 2 at 37° C. On day 4, a 1 ml aliquot of cells was removed from the flasks, centrifuged for about 10 minutes, the media removed and the cells resuspended in a 0.2 ml of solution of nitroblue tetrazolium/phorbol 12 myristate 13-acetate (NBT/TPA) in media prepared on the day of enumeration as follows. Nitroblue tetrazolium was dissolved in media at 1 mg/ml. To this solution was added TPA to a final concentration of 100 ng/ml. This solution was kept in a covered vial on ice. The cells were suspended and incubated at 37° C. for 30 min. prior to transferring to ice. An aliquot was removed and the cells are counted using a hemocytometer. Cells without pigmented granules are judged to be undifferentiated while those containing blue black formazan (indicating conversion of NBT) granules were scored as differentiated. Results are expressed as percent differentiated cells by calculating the ratio of the number of dark cells per total number of cells counted.

[1] = test system: human neonatal keratinocytes; assay: Human Keratinocyte Antiproliferative Assay; assay type: cell-based; conditions: for IC50: read-out: average ED50 (Dose that would obtain 50% of the number of cells as compared to the control)
Procedure: Human Keratinocyte Antiproliferative Assay
Cultures were obtained from neonatal foreskin epithelial keratinocytes using standard procedures.
Human neonatal foreskins were collected by circumcision and placed into tubes containing Dulbecco's minimum essential Media (DMEM) with 10% serum. Upon arrival at the laboratory, they were mechanically trimmed of excess dermis, and treated with a solution of trypsin/ethylenediamine tetraacetic acid (EDTA) (0.05%/0.02%) at 4° C. overnight. The epidermis was stripped from the dermis, agitated in buffered saline to remove basal keratinocytes and the stratum corneum later removed. […] The cultures are incubated in humidified chambers with 5% CO2 at 37° C. with refeeding fresh media 2 to 3 times per week.
Antiproliferation Assay Protocol:
Approximately twenty-four hours after passage, the cells were refed with fresh KGM media supplemented to 1.5 mM CaCl2 that contains test compound or vehicle. Solutions of test compounds were prepared as follows: 1 milligram quantities were received in amber glass vials and stored at -20° C. Sufficient 100% ethanol was added directly to vials to obtain a millimolar solution that was subsequently aliquoted into small amber vials, overlayed with argon gas and stored at -20° C. Each stock solution was thawed once, used and discarded. Stock solutions were used within 4 to 6 weeks. Aliquots from the stock solution were diluted directly into medium and then serially diluted from micromolar to picomolar concentrations. […] Control wells are supplemented with vehicle alone at the highest concentration such as 0.1% ethanol. At the termination of the experiment prior to the cultures reaching confluency, the cells were enumerated by the following procedure. Dishes were washed with phosphate buffered saline, and then incubated with trypsin/EDTA solution for 30 minutes. Cells were suspended and an aliquot placed into isotonic buffered saline and counted on an electronic particle counter (Coulter Counter). The counter was periodically calibrated for the correct size of keratinocytes. Each well was counted in triplicate.

sebaceous cells = assay: Inhibition of proliferation of sebaceous cells in vitro; assay type: cell-based; conditions: Homo sapiens, read-out: ED50 (amount of compound necessary to inhibit the proliferation of the sebaceous cells by 50%)
Procedure: Sebaceous cells were isolated from adult human sebaceous glands, derived from facial skin removed during cosmetic surgery. This method is described in an article by Doran et al. in J. Invest. Dermatol. 96:341-348 (1991).
The cells were cultured in Iscove's medium containing 10% fetal calf serum and 4 μg/ml dexamethasone on a layer of growth-arrested 3T3 mouse fibroblasts.
Cells were plated in medium without the test compound and then given the compound in fresh medium 24-48 hours after the initial plating. The cultures were given fresh medium, containing the test compound, every 48 hours. On the day of harvesting, the cultures were rinsed with 0.03% ethylenediamine tetraacetic acid (EDTA) in phosphate buffered saline (PBS), to remove only the 3T3 fibroblasts. The remaining sebocyte colonies were incubated in 0.05% trypsin/0.03% EDTA to create a single cell suspension of sebocytes. The cells were diluted, mixed vigorously to maintain a single cell suspension, and counted in a hemocytometer.
All compounds were handled in the following manner. Stock solutions were made up as 10^-2 M solutions in degassed 100% ethanol and stored at -20° C. in the dark. Solutions were never used after storage of more than a month. During experimental use the solutions, which had been aliquoted, were thawed once and used by diluting directly into complete medium to the appropriate concentration. […]

T47-D cells = assay: Tetrazolium based MTT assay, inhibition of cell growth, T47-D; conditions: Homo sapiens, T47D
Procedure: (§1) TETRAZOLIUM BASED MTT ASSAY
T47-D (breast ductal carcinoma) were grown in RPMI-1640 medium supplemented with 10 μg/ml bovine insulin and 10% fetal bovine serum (FBS).
(§2) Cells were grown in appropriate medium to late log phase (about 80% confluency). T47-D or MCF-7 cells were then trypsinized and seeded at 4,000 or 2,000 cells/well, respectively.
(§3) Tetrazolium Based MTT Assay:
(§4) At 24 hours post seeding, serial dilutions of ethanol-solubilized drugs are prepared in the same medium and added to triplicate wells at a final concentration of 1,000 to 0.1 nM and 0.1% ethanol. On days 3 to 7 post drug addition, 50 μl of a 5 mg/ml MTT solution (3-(4,5-dimethylthiazol-2-yl)-2,5-diphenyl tetrazolium bromide in phosphate-buffered saline) is added to each well and incubation is continued at 37° C. for 2.5 hours. The plates are then spun briefly by centrifugation at 800 xg for 5 minutes, medium is aspirated from wells, and 50 μl ETOH/well is added to dissolve the formazan formed during the incubation period with MTT. After a 15 minute shaking, the optical density is determined for each well in an automatic plate reader at 570 and 660 nm. Percent inhibition of cell growth is calculated by comparing optical densities of cells treated with test compounds to those of cells treated only with 0.1% ethanol. IC50 values are determined based on the Reed and Muench formula (Am. J. Hyg. 27:493-497 1938) and the results of two independent experiments are presented below: […]

MCF-7 cells = assay: Tetrazolium based MTT assay, inhibition of cell growth, MCF-7; conditions: Homo sapiens, MCF7, Exp. 2
Procedure: as §1
MCF-7 (breast adenocarcinoma) were grown in MEM (Eagle) supplemented with non-essential amino acids, 1 mM sodium pyruvate, […] bovine insulin and 10% FBS
as §2, §3, §4

[2] = Homo sapiens, Keratinocyte, read-out: % of Control

Row | SMILES | IC50 (MCF-7 cells) [nM] | Percent Positive Cells (HL-60 tumor cell line; Dose 0.1 nM) [%] | Percent Positive Cells (HL-60 tumor cell line; Dose 0.3 nM) [%] | Percent Positive Cells (HL-60 tumor cell line; Dose 1.0 nM) [%] | Percent Positive Cells (HL-60 tumor cell line; Dose 10.0 nM) [%] | Percent Positive Cells (HL-60 tumor cell line; Dose 100.0 nM) [%] | EC50 (HL-60 tumor cell line) [nM] | Avg Cell No. ([1]; Dose 10 nM) | Avg Cell No. ([1]; Dose 100 nM) | Avg Cell No. ([1]; Dose 1000 nM) | IC50 (T47-D cells; Exp. 1) [nM] | IC50 (T47-D cells; Exp. 2) [nM] | other results
1 | C=C1/C(=C\C=C2/CCC[C@]3(C)[C@@H]([C@H](C)CCCC(C)(C)O)CC[C@@H]23)C[C@@H](O)C[C@@H]1O [1,25-dihydroxy-cholecalciferol, 1,25-dihydroxycholecalciferol, reference compound] |  | 2.0 | 5.0 | 3.5 | 26.0 | 84.0 | ~25 | 4.60E+05 | 3.12E+05 | 7.19E+05 |  |  | Avg Cell No. ([1]; Dose 30 nM): 3.90E+05; Avg Cell No. ([1]; Dose 300 nM): 2.51E+05; activity at 0.01 µM [1, 2]: 94.3%; activity at 0.03 µM [1, 2]: 79.9%; activity at 0.1 µM [1, 2]: 64%; activity at 0.3 µM [1, 2]: 51.4%; activity at 1 µM [1, 2]: 14.7%; IC50 ([1]; Homo sapiens, Keratinocyte): 300 nM; IC50 (sebaceous cells): 50 nM
2 | C=C1/C(=C\C=C2/CCC[C@]3(C)C([C@H](C)CC#CC(O)(C(F)(F)F)C(F)(F)F)=CC[C@@H]23)C[C@@H](O)C[C@@H]1O [1,25-dihydroxy-16-ene-23 yne-26,27-hexafluoro-cholecalciferol, reference compound] | 0.42 |  |  |  |  |  |  |  |  |  | 0.63 | 0.95 | 

The next lines start with results.

Row | IC50 (MCF-7 cells) [nM] | SMILES | Percent Positive Cells (HL-60 tumor cell line; Dose 0.1 nM) [%] | Percent Positive Cells (HL-60 tumor cell line; Dose 0.3 nM) [%] | Percent Positive Cells (HL-60 tumor cell line; Dose 1.0 nM) [%] | Percent Positive Cells (HL-60 tumor cell line; Dose 10.0 nM) [%] | Percent Positive Cells (HL-60 tumor cell line; Dose 100.0 nM) [%] | EC50 (HL-60 tumor cell line) [nM] | Avg Cell No. ([1]; Dose 10 nM) | Avg Cell No. ([1]; Dose 100 nM) | Avg Cell No. ([1]; Dose 1000 nM) | IC50 (T47-D cells; Exp. 1) [nM] | IC50 (T47-D cells; Exp. 2) [nM] | other results
3 | 0.15 | C[C@H](C/C=C/C(O)(C(F)(F)F)C(F)(F)F)C1=CC[C@H]2/C(=C/C=C3C[C@@H](O)C[C@H](O)C3)CCC[C@]12C [1,25-Dihydroxy-16,23E-diene-26,27-hexafluoro-19-norcholecalciferol] |  |  |  |  |  |  |  |  |  | 0.26 | 2.2 | 
4 | 0.05 | C=C1/C(=C\C=C2/CCC[C@]3(C)C([C@H](C)C/C=C/C(O)(C(F)(F)F)C(F)(F)F)=CC[C@@H]23)C[C@@H](O)C[C@@H]1O [1,25-Dihydroxy-16,23E-diene-26,27-hexafluorocholecalciferol] | 6.0 | 30.5 | 63.0 | 79.0 | 89.5 | ~0.6 | 2.29E+05 | 2.03E+05 | 3.04E+05 | < 0.1 | 0.9 | Avg Cell No. ([1]; Dose 0.0001 nM): 4.57E+05; Avg Cell No. ([1]; Dose 0.001 nM): 4.41E+05; Avg Cell No. ([1]; Dose 0.01 nM): 5.42E+05; Avg Cell No. ([1]; Dose 0.1 nM): 5.03E+05; Avg Cell No. ([1]; Dose 1.0 nM): 2.87E+05; activity at 100 fM ([1]; Homo sapiens, Keratinocyte, Dose 0.0001 nM, read-out: % of Control): 93.7%; activity at 1 pM ([1]; Homo sapiens, Keratinocyte, Dose 0.001 nM, read-out: % of Control): 90.3%; activity at 10 pM ([1]; Homo sapiens, Keratinocyte, Dose 0.01 nM, read-out: % of Control): 111%; activity at 0.0001 µM ([1]; Homo sapiens, Keratinocyte, Dose 0.1 nM, read-out: % of Control): 103%; activity at 0.001 µM ([1]; Homo sapiens, Keratinocyte, Dose 1.0 nM, read-out: % of Control): 58.7%; activity at 0.01 µM ([1]; Homo sapiens, Keratinocyte, Dose 10 nM, read-out: % of Control): 47%; activity at 0.1 µM ([1]; Homo sapiens, Keratinocyte, Dose 100 nM, read-out: % of Control): 41.6%; activity at 1 µM ([1]; Homo sapiens, Keratinocyte, Dose 1000 nM, read-out: % of Control): 6.23%; IC50 ([1]; Keratinocyte, human keratinocytes): 2 nM; IC50 (sebaceous cells; compared to vehicle treated control culture): < 1 nM
5 | 0.38 | C=C1/C(=C\C=C2/CCC[C@]3(C)C([C@H](C)C/C=C/C(O)(C(F)(F)F)C(F)(F)F)=CC[C@@H]23)C[C@@H](O)C[C@@H]1F [1α-Fluoro-25-hydroxy-16,23E-diene-26,27-hexafluorocholecalciferol] |  |  |  |  |  |  |  |  |  |  |  | 
